The values that follow are results of earlier work, collected in US7989007B2, “Weight loss composition” (Vincent James Enterprises, LLC, priority 2007, dated 2011).

The conditions of the data set: subjects treated for hypertension; similar degree of hypertension control.

With `CC(C)NCC(O)COc1ccc(CC(N)=O)cc1` (stereo not shown) [atenolol], the “weight gain compared to patients treated with captopril” value is reported as “twice the weight gain”.
